target: T1, hFXR (Homo sapiens, UniProt Q96RI1); test: In Vitro FXR Assay (TK): TK-ECRE-luc reporter in transfected CV-1 cells; type: cell-based; conditions: CV-1 cells transfected with hFXR, hRXR, pCMX-YFP, 18 hrs incubation, luminescence
T1 construct: expressed in transfected cells; host or cells: CV-1 cells
T1 sequence (Q96RI1 1-486): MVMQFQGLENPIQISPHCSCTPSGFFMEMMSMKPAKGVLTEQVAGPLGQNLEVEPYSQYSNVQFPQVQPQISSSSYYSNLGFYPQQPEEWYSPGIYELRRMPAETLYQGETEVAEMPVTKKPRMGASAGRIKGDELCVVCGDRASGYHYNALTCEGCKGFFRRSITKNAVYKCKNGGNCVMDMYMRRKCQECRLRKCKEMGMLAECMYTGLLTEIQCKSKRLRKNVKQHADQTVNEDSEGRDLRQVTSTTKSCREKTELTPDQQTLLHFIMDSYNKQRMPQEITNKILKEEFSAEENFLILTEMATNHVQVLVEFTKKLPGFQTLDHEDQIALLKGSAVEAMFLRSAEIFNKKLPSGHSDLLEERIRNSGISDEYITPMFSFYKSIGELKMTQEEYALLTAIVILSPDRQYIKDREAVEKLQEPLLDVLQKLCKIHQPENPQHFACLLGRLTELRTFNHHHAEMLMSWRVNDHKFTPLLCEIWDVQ
T1 sequence (P19793 1-462 partner): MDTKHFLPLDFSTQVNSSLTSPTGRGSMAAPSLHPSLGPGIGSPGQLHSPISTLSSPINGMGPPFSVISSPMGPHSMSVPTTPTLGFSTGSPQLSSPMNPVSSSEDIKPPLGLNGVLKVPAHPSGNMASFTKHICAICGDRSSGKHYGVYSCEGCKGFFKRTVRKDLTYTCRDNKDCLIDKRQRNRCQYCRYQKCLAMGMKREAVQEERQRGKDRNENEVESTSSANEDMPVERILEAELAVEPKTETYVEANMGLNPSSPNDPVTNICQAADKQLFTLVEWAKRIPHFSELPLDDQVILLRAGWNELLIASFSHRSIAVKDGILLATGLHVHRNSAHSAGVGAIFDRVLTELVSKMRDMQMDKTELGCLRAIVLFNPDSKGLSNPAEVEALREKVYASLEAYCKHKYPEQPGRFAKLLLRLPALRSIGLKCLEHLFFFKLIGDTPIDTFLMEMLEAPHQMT
Experimental: Example B-1: In Vitro FXR Assay (TK)
CV-1 cells were seeded at a density of 2,000,000 cells in a T175 flask with DMEM+10% charcoal double-stripped FBS and incubated at 37° C. in 5% CO2 for 18 h (O/N).
After 18 h of incubation, the medium in the T175 flask was changed with fresh DMEM+10% charcoal super-stripped serum. In a polypropylene tube, 2500 μL OptiMEM (Life Technologies, Cat #31985-062) was combined with expression plasmids for hFXR, hRXR, TK-ECRE-luc and pCMX-YFP. The tube was then briefly vortexed and incubated at room temperature for 5 minutes. Transfection reagent (X-tremeGENE HP from Roche, Cat #06 366 236 001) was added to the OptiMEM/plasmid mixture vortexed and incubated at room temperature for 20 minutes. Following incubation, the transfection reagent/DNA mixture complex was added to cells in the T175 flask and the cells were incubated at 37° C. in 5% CO2 for 18 h (O/N).
Compounds were serially diluted in DMSO and added to transfected CV-1 cells. The cells were then incubated for 18 hrs. The next day cells were lysed and examined for luminescence.

`COc1ccc(C23CCC(CN(c4cc(-c5cnc(C(C)(C)C)s5)ccn4)C(=O)[C@H]4CC[C@H](OC(=O)N5CC(S(C)(=O)=O)C5)CC4)(CC2)CC3)cc1C` [Compound 2.03, 4-((4-(2-(tert-Butyl)thiazol-5-yl)pyridin-2-yl)((4-(4-methoxy-3-methylphenyl)bicyclo[2.2.2]octan-1-yl)methyl)carbamoyl) (trans-cyclohexyl) 3-(methylsulfonyl)azetidine-1-carboxylate] and `COc1ccc(C23CCC(CN(c4cc(-c5cnc(C(C)(C)C)s5)ccn4)C(=O)[C@H]4CC[C@H](OC(=O)N5CC(CO)C5)CC4)(CC2)CC3)cc1C` [Compound 3.08, 4-((4-(2-(tert-Butyl)thiazol-5-yl)pyridin-2-yl)((4-(4-methoxy-3-methylphenyl)bicyclo[2.2.2]octan-1-yl)methyl)carbamoyl) (trans-cyclohexyl) 3-(hydroxymethyl)azetidine-1-carboxylate] cannot be ordered by EC50: ≤ 0.01 µM for the first, ≤ 0.01 µM for the second.

`COc1c(C)cc(C23CCC(CN(c4cncc(-c5cnn(C(C)(C)C)c5)n4)C(=O)[C@H]4CC[C@H](OC(=O)N5CC(O)C5)CC4)(CC2)CC3)cc1C` [Compound 3.13, 4-((6-(1-(tert-Butyl)-1H-pyrazol-4-yl)pyrazin-2-yl)((4-(4-methoxy-3,5-dimethylphenyl)bicyclo[2.2.2]octan-1-yl)methyl)carbamoyl) (trans-cyclohexyl) 3-hydroxyazetidine-1-carboxylate] and `COc1ccc(C23CCC(CN(c4cc(-c5ccn(C(C)(C)C)n5)ccn4)C(=O)[C@H]4CC[C@H](OC(=O)N5CC(O)C5)CC4)(CC2)CC3)cc1C` [Compound 4.10, 4-((4-(1-(tert-Butyl)-1H-pyrazol-3-yl)pyridin-2-yl)((4-(4-methoxy-3-methylphenyl)bicyclo[2.2.2]octan-1-yl)methyl)carbamoyl) cyclohexyl trans-3-hydroxyazetidine-1-carboxylate] fall in the same range of EC50: 0.01 to 1 µM for the first, 0.01 to 1 µM for the second.

`COc1ccc([C@H]2CC[C@H](CN(c3cc(-c4cnc(C(C)(C)C)s4)ccn3)C(=O)[C@H]3CC[C@H](OC(=O)N4CC(O)C4)CC3)CC2)cc1C` [Compound 1.01, trans-4-((4-(2-(tert-Butyl)thiazol-5-yl)pyridin-2-yl)(((trans)-4-(4-methoxy-3-methylphenyl)cyclohexyl)methyl)carbamoyl) cyclohexyl 3-hydroxyazetidine-1-carboxylate] and `COc1ccc([C@H]2CC[C@H](CN(c3cc(-c4cnn(C(C)(C)C)c4)ccn3)C(=O)[C@H]3CC[C@H](OC(=O)NC4CCOCC4)CC3)CC2)cc1C` [Compound 1.11, trans-4-((4-(1-(tert-Butyl)-1H-pyrazol-4-yl)pyridin-2-yl)((trans-4-(4-methoxy-3-methylphenyl)cyclohexyl)methyl)carbamoyl) cyclohexyl (tetrahydro-2H-pyran-4-yl)carbamate] fall in the same range of EC50: 0.01 to 1 µM for the first, 0.01 to 1 µM for the second.

`COc1ccc(C23CCC(CN(c4cc(-c5cnn(C(C)(C)C)c5)ccn4)C(=O)[C@H]4CC[C@H](OC(=O)NCCC(C)(C)O)CC4)(CC2)CC3)cc1C` [Compound 2.32, 4-((4-(1-(tert-Butyl)-1H-pyrazol-4-yl)pyridin-2-yl)((4-(4-methoxy-3-methylphenyl)bicyclo[2.2.2]octan-1-yl)methyl)carbamoyl) (trans-cyclohexyl) (3-hvdroxy-3-methylbutyl)carbamate] and `CCC(C)(CC)n1cc(-c2ccnc(N(CC34CCC(c5ccc(OC)c(C)c5)(CC3)CC4)C(=O)[C@H]3CC[C@H](OC(=O)NCCCO)CC3)c2)cn1` [Compound 4.07, 4-(((4-(4-Methoxy-3-methylphenyl)bicyclo[2.2.2]octan-1-yl)methyl)(4-(1-(3-methylpentan-3-yl)-1H-pyrazol-4-yl)pyridin-2-yl)carbamoyl)cyclohexyl trans-(3-hydroxypropyl)carbamate] cannot be ordered by EC50: ≤ 0.01 µM for the first, ≤ 0.01 µM for the second.

`COc1ccc(C23CCC(CN(c4cc(-c5coc(C(C)(C)C)n5)ccn4)C(=O)[C@H]4CC[C@H](OC(=O)N5CC[C@H]5CO)CC4)(CC2)CC3)cc1C` [Compound 2.11, (S)-4-((4-(2-(tert-Butyl)oxazol-4-yl)pyridin-2-yl)((4-(4-methoxy-3-methylphenyl)bicyclo[2.2.2]octan-1-yl)methyl)carbamoyl)cyclohexyl 2-(hydroxymethyl)azetidine- trans-1-carboxylate] and `COc1ccc(C23CCC(CN(c4cc(-c5coc(C(C)(C)C)n5)ccn4)C(=O)[C@H]4CC[C@H](OC(=O)N5CC(S(C)(=O)=O)C5)CC4)(CC2)CC3)cc1C` [Compound 2.13, 4-((4-(2-(tert-Butyl)oxazol-4-yl)pyridin-2-yl)((4-(4-methoxy-3-methylphenyl)bicyclo[2.2.2]octan-1-yl)methyl)carbamoyl) (trans-cyclohexyl) 3-(methylsulfonyl)azetidine-1-carboxylate] cannot be ordered by EC50: ≤ 0.01 µM for the first, ≤ 0.01 µM for the second.

`COc1ccc(C23CCC(CN(c4cc(-c5cnc(C(C)(C)C)s5)ccn4)C(=O)[C@H]4CC[C@H](OC(=O)NCCCO)CC4)(CC2)CC3)cc1C` [Compound 2.02, 4-((4-(2-(tert-Butyl)thiazol-5-yl)pyridin-2-yl)((4-(4-methoxy-3-methylphenyl)bicyclo[2.2.2]octan-1-yl)methyl)carbamoyl) (trans-cyclohexyl) (3-hydroxypropyl)carbamate] and `COc1ccc(C23CCC(CN(c4cc(-c5cnc(C(C)(C)C)s5)ccn4)C(=O)[C@H]4CC[C@H](OC(=O)N5CC(C)(O)C5)CC4)(CC2)CC3)cc1C` [Compound 2.01, 4-((4-(2-(tert-Butyl)thiazol-5-yl)pyridin-2-yl)((4-(4-methoxy-3-methylphenyl)bicyclo[2.2.2]octan-1-yl)methyl)carbamoyl) (trans-cyclohexyl) 3-hydroxy-3-methylazetidine-1-carboxylate] cannot be ordered by EC50: ≤ 0.01 µM for the first, ≤ 0.01 µM for the second.

`COc1ccc(C23CCC(CN(c4cc(-c5cnn(C(C)(C)C)c5)ccn4)C(=O)[C@H]4CC[C@H](OC(=O)NC5CCS(=O)(=O)CC5)CC4)(CC2)CC3)cc1C` [Compound 2.39, 4-((4-(1-(tert-Butyl)-1H-pyrazol-4-yl)pyridin-2-yl)((4-(4-methoxy-3-methylphenyl)bicyclo[2.2.2]octan-1-yl)methyl)carbamoyl) cyclohexyl trans-(1,1-dioxidotetrahydro-2H-thiopyran-4-yl)carbamate] and `COc1ccc(C23CCC(CN(c4cc(-c5cnn(C(C)(C)C)c5)ccn4)C(=O)[C@H]4CC[C@H](OC(=O)N5CC(CS(C)(=O)=O)C5)CC4)(CC2)CC3)cc1C` [Compound 2.24, 4-((4-(1-(tert-Butyl)-1H-pyrazol-4-yl)pyridin-2-yl)((4-(4-methoxy-3-methylphenyl)bicyclo[2.2.2]octan-1-yl)methyl)carbamoyl) (trans-cyclohexyl) 3-((methylsulfonyl)methyl) azetidine-1-carboxylate] cannot be ordered by EC50: 0.01 to 1 µM for the first, ≤ 0.01 µM for the second.

`COc1ccc(C23CCC(CN(c4cc(-c5coc(C(C)(C)C)n5)ccn4)C(=O)[C@H]4CC[C@H](OC(=O)NC5COC5)CC4)(CC2)CC3)cc1C` [Compound 2.18, 4-((4-(2-(tert-Butyl)oxazol-4-yl)pyridin-2-yl)((4-(4-methoxy-3-methylphenyl)bicyclo[2.2.2]octan-1-yl)methyl)carbamoyl) (trans-cyclohexyl) oxetan-3-ylcarbamate] showed an EC50 of 0.01 to 1 µM.
